Usually IC50 stands for the concentration that inhibits the measured activity by half. Broadly, the CC50 is the concentration giving 50% cytotoxicity.

The subject of data set [1] is P. falciparum FcB1/Colombia. On the set-up: method as in PMID 15474559. The settings on record: chloroquine-resistant P. falciparum FcB1/Colombia; cited from earlier work.
A further data set deals with P. falciparum D6. The settings on record: cited from earlier work.
For the next data set, the system named is heme polymerization. On the set-up: method as in PMID 9199506. The settings on record: cited from earlier work.
The next data set relates to P. falciparum K1 strain. The data set is described as follows: in vitro antiplasmodial activity, parasite lactate dehydrogenase (pLDH) assay. The class given is cell-based, Plasmodium falciparum. The settings on record: for IC50: Plasmodium falciparum, read-out: IC50 ± SD P. falciparum K1; for antiplasmodial activity classification of pure compounds: P. falciparum K1, class by IC50; for Selectivity index (SI): CC50 Vero cells / IC50 P. falciparum K1.

A further data set concerns PfLDH. The settings on record: cited from earlier work.
The subject of a further data set is Vero cells. The data set is described as follows: in vitro cytotoxicity, MTT assay. The class given is cell-based. The settings on record: Vero cells, toxic when CC50 < 100 µM. The procedure:
(§1) The purpose of this study was to determine the cytotoxicity of crude extracts and pure compounds isolated from M. ferrea roots on Vero cells. The MTT assay was performed according to an established protocol. Briefly, Vero cells were cultured in Dulbecco’s Modified Eagle Medium (Gibco, USA) supplemented with 10% fetal bovine serum (FBS) (Sigma-Aldrich, New Delhi, India). Vero cell suspensions were seeded onto 96-well culture plates at a density of 1 × 10^4 cells per well. The seeded culture plates were incubated at 37 °C in a 5% CO2 atmosphere for 24 h to facilitate cell attachment. Subsequently, the cultured cells were exposed to the test extracts and pure compounds in triplicate for each concentration. Doxorubicin (Sigma-Aldrich, India) was used as a positive control, whereas DMSO served as a negative control. All extracts and pure compounds were dissolved in DMSO and added to the medium at a final concentration of 0.5% DMSO. Plates containing the test samples were incubated at 37 °C in a 5% CO2 atmosphere for 48 h. Following incubation, the cell culture supernatant was discarded, and 50 µL of MTT solution (5 mg/mL) (Thermo Fisher Scientific, Oregon, USA) was added to each well. The test plates were then incubated at 37 °C in a 5% CO2 atmosphere for 2 h. Subsequently, the supernatant was discarded, and 100 µL/well of DMSO was added to induce cell lysis and dissolve the formazan crystals. To estimate the reactions, absorbance was measured at 560 nm in a microplate reader, and the background absorbance at 670 nm was subtracted.
On the technique in general: Tetrazolium dyes change colour on reduction, which living cells bring about.

The nature of data set [2]: in vitro cytotoxicity, MTT assay. The class given is cell-based. The settings on record: African green monkey, pure compounds and doxorubicin, 48 h, mean ± SD of three determinations; for CC50 at 48 h: Vero cells. The method, then:
as §1

Another data set has as its system P. falciparum 3D7. The arrangement: method as in PMID 37029625. The settings on record: chloroquine-sensitive P. falciparum 3D7; read-out: IC50 antiplasmodial activity; cited from earlier work.
The mark [3] stands for this setting: K1, pure compounds and reference drugs, 72 h, mean ± SD of three determinations.
Where [4] appears, read: ratio of IC50 against P. falciparum K1.

Values after ≈ are worked out from the molar mass of the structure shown. “Also recorded” adds a separate entry of the source. Where two headings read alike, the source gives them in different places.

Turning to `O=c1c2cccc(O)c2oc2cc(O)cc(O)c12` [1,3,5-trihydroxyxanthone], in data set [1], the IC50 antiplasmodial activity is recorded as 24.7 µg/mL (≈ 101 µM). Further, the IC50 with P. falciparum D6 (P. falciparum D6, read-out: IC50 antiplasmodial activity) was > 60 µM.
For the compound `O=c1c2ccc(O)c(O)c2oc2c(O)c(O)c(O)cc12` [2,3,4,5,6-pentahydroxyxanthone], the IC50 in the data set with heme polymerization (read-out: IC50 in vitro heme polymerization) was 1.2 µM; in the data set with P. falciparum D6 (chloroquine-sensitive P. falciparum D6, read-out: IC50 in vitro antiplasmodial activity) it was 0.4 µM.
Take `COc1cc2c(=O)c3ccc(OC)c(OC)c3oc2c(OC)c1OC` [2,3,4,5,6-pentamethoxyxanthone]: the heme polymerization inhibition result in the data set on heme polymerization is “no in vitro antiplasmodial activity or heme polymerization”. For the same compound, the “in vitro antiplasmodial activity” value with P. falciparum D6 (same study as pentahydroxyxanthone) is given as “no in vitro antiplasmodial activity”.
For the compound `C[C@H]1[C@H](OC(=O)CCC(=O)O)O[C@@H]2O[C@@]3(C)CC[C@H]4[C@H](C)CC[C@@H]1[C@@]24OO3` [Artesunate, artesunate, reference compound], the IC50 in the data set on P. falciparum K1 strain (setting [3]) was determined as 0.003 µM.
Take `CCN(CC)CCCC(C)Nc1ccnc2cc(Cl)ccc12` (centres unmarked) [Chloroquine, chloroquine, reference compound]: the IC50 in the data set on P. falciparum K1 strain (K1, 72 h) worked out at 0.32 µM. Moreover, the PfLDH inhibition result with PfLDH is recorded as “weak inhibitor”.
As to `COc1ccc2oc3cccc(O)c3c(=O)c2c1` [Compound 1, 1-hydroxy-7-methoxyxanthone], the “antiplasmodial activity classification of pure compounds” value (“antiplasmodial activity classification” below) with P. falciparum K1 strain was “inactive”. The IC50 in the data set on P. falciparum K1 strain (setting [3]) was determined as 346 ± 3.51 µM. The “cytotoxicity classification of pure compounds” value (“cytotoxicity classification” for short) in the data set with Vero cells was “non-toxic”. The compound further returned a CC50 at 48 h in data set [2] of 195.8 ± 1.68 µM.
For `COc1cccc2c(=O)c3c(O)cccc3oc12` [Compound 2, 1-hydroxy-5-methoxyxanthone] the same measures were “low (low activity (IC50 100−200 µM))”, 164 ± 1.71 µM, “toxic (pure compounds are considered toxic to cells when the CC50 value is less than 100 µM)” and 62 ± 1.18 µM.
Turning to `O=c1c2ccc(O)cc2oc2cccc(O)c12` [Compound 3, 1,6-dihydroxyxanthone], the “antiplasmodial activity classification” value in the data set with P. falciparum K1 strain is “inactive”. Moreover, the IC50 with P. falciparum K1 strain (setting [3]) amounted to 226.1 ± 1.32 µM. Moreover, in the data set with Vero cells, the “cytotoxicity classification” value was “non-toxic”. Further, in data set [2] (read-out: CC50 ± SD Vero cells), the CC50 is 182.8 ± 1.62 µM.
Take `O=c1c2cccc(O)c2oc2cccc(O)c12` [Compound 4, 1,5-dihydroxyxanthone]: in the data set with P. falciparum K1 strain, the “Selectivity index (SI)” value was determined as 3.89 and the “antiplasmodial activity classification” value is reported as “low (low activity (IC50 100−200 µM))”. In addition, the IC50 with P. falciparum K1 strain (setting [3]) turned out to be 107 ± 4.41 µM. Further, the “cytotoxicity classification” value in the data set on Vero cells is given as “non-toxic”. The CC50 at 48 h in data set [2] amounted to 416.7 ± 1.98 µM.
On to `CC1(C)C=Cc2cc3c(=O)c4c(O)cccc4oc3c(O)c2O1` [Compound 5, rheediachromenoxanthone], for which the “antiplasmodial activity classification” value with P. falciparum K1 strain was “good (good activity (IC50 1−20 µM))”. In addition, in the data set on P. falciparum K1 strain (setting [3]), the IC50 turned out to be 19.9 ± 0.72 µM. In the data set with P. falciparum K1 strain (setting [4]), the “fold less potent than artesunate” value is on record as ~6,643.3 fold, the “fold less potent than chloroquine” value was “approximately 62.3 fold” and the “times more potent than 2,5-dihydroxy-1-methoxyxanthone (7)” value was “approximately 2.3 times”. Besides, in the data set with Vero cells, the “cytotoxicity classification” value was “no toxicity; also recorded: non-toxic”. Further, the “cytotoxicity classification” value in the data set with Vero cells (listed as Rheediachromenoxanthone) is “non-toxicity”. For the same compound, half-maximal cytotoxicity in data set [2] (CC50 at 48 h) was put at 112 ± 1.54 µM.
As for `COc1cc(O)c2c(=O)c3cccc(O)c3oc2c1` [Compound 6, 1,5-dihydroxy-3-methoxyxanthone], the “antiplasmodial activity classification” value in the data set on P. falciparum K1 strain is recorded as “low (low activity (IC50 100−200 µM))”. For the same compound, the IC50 in the data set on P. falciparum K1 strain (setting [3]) is 198 ± 2.43 µM. In addition, the “cytotoxicity classification” value in the data set on Vero cells is reported as “non-toxic”. This compound had a CC50 at 48 h in data set [2] of 210.2 ± 1.74 µM.
As for `COc1c(O)ccc2oc3c(O)cccc3c(=O)c12` [Compound 7, 2,5-dihydroxy-1-methoxyxanthone], in the data set on P. falciparum K1 strain, the “Selectivity index (SI)” value stood at 12.70 and the “antiplasmodial activity classification” value is given as “moderate (moderate activity (IC50 20−100 µM))”. Moreover, the IC50 with P. falciparum K1 strain (setting [3]) worked out at 46.3 ± 1.65 µM. Moreover, in the data set on Vero cells, the “cytotoxicity classification” value is recorded as “non-toxic”. This compound yielded a CC50 at 48 h in data set [2] of 587.9 ± 2.18 µM.
Take `COc1cccc2c1C(=O)c1c(O)c3c(c(O)c1C2=O)C[C@@](O)(C(=O)CO)C[C@@H]3O[C@H]1C[C@H](N)[C@H](O)[C@H](C)O1` [Doxorubicin, reference compound]: in data set [2], the CC50 at 48 h was determined as 3.35 ± 0.28 µM.
As to `C=CC(C)(C)c1c2c(c(O)c3c(=O)c4cccc(O)c4oc13)C=CC(C)(C)O2` [caloxanthone C], the IC50 antiplasmodial activity in data set [1] is recorded as 1.3 µg/mL (≈ 3.44 µM).
Consider `CC1(C)C=Cc2c(cc(O)c3c(=O)c4ccc(O)c(O)c4oc23)O1` [isojacareubin], for which, in the data set with P. falciparum 3D7, the IC50 is 11.5 µM.
Take `C=CC(C)(C)c1c2c(c(O)c3c(=O)c4ccc(O)c(O)c4oc13)C=CC(C)(C)O2` [macluraxanthone]: in the data set on P. falciparum 3D7, the IC50 is 4.28 µM.
